Laboratory results reported in publication PMC7265491, “Inhibition of LIPG phospholipase activity suppresses tumor formation of human basal-like triple-negative breast cancer” (Scientific Reports, 2020).

Biological target: T1, LIPG (endothelial lipase) (Homo sapiens, UniProt Q9Y5X9)
T1 construct: LIPG overexpressed in MDA-MB-468 cells
T1 sequence (Q9Y5X9 21-500): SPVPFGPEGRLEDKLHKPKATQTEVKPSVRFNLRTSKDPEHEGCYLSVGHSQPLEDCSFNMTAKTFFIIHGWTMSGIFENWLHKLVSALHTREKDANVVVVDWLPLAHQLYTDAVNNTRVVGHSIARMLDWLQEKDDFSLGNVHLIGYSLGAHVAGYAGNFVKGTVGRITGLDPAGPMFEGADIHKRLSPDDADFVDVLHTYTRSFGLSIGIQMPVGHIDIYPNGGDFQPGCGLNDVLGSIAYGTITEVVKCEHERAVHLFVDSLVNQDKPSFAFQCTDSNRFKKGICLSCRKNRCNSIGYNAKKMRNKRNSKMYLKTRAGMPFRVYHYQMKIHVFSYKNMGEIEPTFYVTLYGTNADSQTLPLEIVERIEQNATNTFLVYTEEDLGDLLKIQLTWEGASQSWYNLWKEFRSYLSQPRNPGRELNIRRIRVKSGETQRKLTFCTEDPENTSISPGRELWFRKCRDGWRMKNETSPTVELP
Assay: cell-based fluorogenic phospholipase A1 assay (PED-A1 substrate) with LIPG-overexpressing MDA-MB-468 cells, parental-cell background subtracted

- IC50: 2170 nM
Compound: O=C(O)c1cc(C(F)(F)F)ccc1N1CC[C@H](OCc2ccccn2)C1 [XEN445]
